Measurements as given in patent US20110054028A1, “SUPPLEMENT FOR REDUCING HIV TR[…] METHOD THEREOF” (priority 2009, published 2011).

Test system: HIV-1 (NL4-3) viral release in HeLa cells
Test: HIV-1 viral release in HeLa cells transfected with NL4-3 (p24 antigen assay)
Type: cell-based
Details: HeLa cells expressing NL4-3
Protocol: HeLa cells at 50% confluency in P25 flasks were transiently transfected with 2-3 μg of one of the HIV-1 proviral constructs (pNL4-3; pNL4-3/Udel). One-tenth of the culture media was retrieved from each sample and filtered through a 0.22-μm syringe filter at each time point. Cells were collected at the end and subjected to whole-cell lysis by 1% SDS. The viral content in culture media and in cell lysates was determined by Coulter HIV-1 p24 Antigen Assay kit. Virus release was compared to that from the control (co-transfection of pNL4-3 and pCGI). Data are expressed as mean±SEM from 8 independent experiments.
For the inhibitory effects of K2P channel, different quantities (0.02-10 μM) of arachidonic acid (Sigma) were tested in HeLa cell culture at the 24th hour post-transfection of NL4-3, and one-tenth of the media was retrieved and filtered at each time point. Viral release was compared to that of the untreated HeLa cell set at 100% (control).
Referring to FIG. 3, the inhibitory effects of HIV-1 viral release in HeLa cells at the 4th hour after arachidonic acid (AA) supplementation were shown. […] Moreover, 50-60% of the release inhibition could be achieved by AA at 0.5×10^−7˜10^−6 M.

## CCCCC/C=C\C/C=C\C/C=C\C/C=C\CCCC(=O)O [AA, arachidonic acid]
4th hour after AA supplementation, AA at 0.5×10^−7˜10^−6 M, untreated HeLa cell set at 100%
  release inhibition (HIV-1 viral release): 50-60%
Submicromolar concentrations, 4th hour after supplementation
  suppression of viral release: could suppress viral release
